Measured values published in US20140235518A1, “AQUEOUS LIQUIDS CONTAINING AN ORGANIC COMPOUND AND AN N-(2-HYDROXYALKYL) SUBSTITUTED N-ALKYLAMINE” (TAMINCO, priority 2011, published 2014).

Experiments:
[1] = test system: microbial population of spoiled coolant; assay: Biostability comparison, soluble oil emulsion diluted in spoiled coolant (CFU by oxygen pressure); assay type: cell-based; conditions: diluted 20 to 1 in spoiled coolant water
Experimental: (§1) The 100 ml test solutions were initially challenged with 10 ml of a lab maintained rancid soluble oil containing 50% tramp oil with an overall biological count of 8,800,000 CFU/ml. The degree of biological growth throughout the experiment was measured by the HMB-IV (Biotech International, Needville, Tex.) method for determination of the aerobic and facultative biological activity within a liquid metalworking fluid sample. This test method is based on the principle that most of the microorganisms in challenged metalworking fluids produce catalase while they are active. The addition of a known amount of a formulated HMB-IV oxidizing agent (hydrogen peroxide, buffer and chelating chemicals) to a standard volume of the sample fluid in a sealed test tube allows for an amount of oxygen proportional to the amount of active bacteria to be produced via the chemical reaction between active catalase enzyme and the hydrogen peroxide. A calibrated device is used to measure the amount of oxygen that is produced via the change in the pressure of the headspace within a test tube over a period of 15 minutes.
A challenge test comparison of the following soluble oil emulsion was carried out over several days.
The above concentrate formula was used with either 3 or 5 parts of one of the test amines. The soluble oil concentrate was diluted 20 to 1 in stagnant water made up from spoiled coolant (cultured from an original stock of rancid metalworking coolant used in a ferrous alloy cutting operation) which was in turn prepared by diluting 10% of a 60,000,000 CFU per ml of stock spoiled coolant with 90% tap water that had been allowed to air out for 24 hours. The challenge solution, which in this experiment is a control, was calculated to initially contain 6,000,000 CFU per ml microbial population. By the next day, the microbial content of the challenge solution had increased to 13,000,000 CFU per ml. By the end of the trial, the microbial content of the challenge solution had declined to 7,400,000 CFU. The concentration of microbes was determined by oxygen pressure development as described in Example 4.

[2] = Interfacial tension by drop weight measurements; assay type: physicochemical; conditions: 22° C.
Experimental: Drop weight measurements (i.e., the weight of a drop of one fluid as it is carefully released into another immiscible fluid) were used to evaluate the air/liquid and liquid/liquid interfacial tensions of 5% BDEA(aq) (butyldiethanolamine with C/OH ratio of 4), 5% HBHEEA(aq) (hydroxybutyl hydroxyethyl ethylamine with C/OH ratio of 4) and 2% HBHEBA(aq) (hydroxybutyl hydroxyethyl butylamine with C/OH ratio of 5) solutions at RT (22° C.). Note that a solution of 2% wt/wt of HBHEBA in water takes several minutes to form. About 1% wt/wt of HBHEBA dissolves in water fairly rapidly with stirring, while up to approximately 3% wt/wt can eventually be dissolved if stirring is continued for a longer period of time. The following relationship (oftentimes referred to as Tate's law) is used to relate drop weight to the interfacial tension between the drop fluid and the fluid being “dropped” into:
γ=mactual(1−ρfluid/ρdrop)g/(2πr)
Drop weights were taken 10 at a time and averaged. Three replicates of the drop average were taken to insure accuracy. […] The Table below contains drop weight data of some aqueous AAA solutions as dropped into air and into decane (ρ=0.73 g/ml):
The data for DI water dropped into air is used to standardize the pipette. The surface tension of water/air at 22° C. and 1 bar absolute P is 72 dynes/cm.
Using this value in the equation for DI water gives an orifice radius of 1.2 mm (0.12 cm). All of the measurements were carried out with the same pipette. Using the value of 1.2 mm as the radius of the pipette orifice allows for accurate calculation of the unknown interfacial tensions. Both BDEA and HBHEEA have the same MW and the same total C/OH ratio of 4, but both molecules display distinct interfacial tension properties. […] AAA's of identical total C/OH ratio and identical MW but with differing distribution of hydrophobic and hydrophilic regions display unique properties with respect to solubility, viscosity, volatility, impact on emulsion stability, and assistance to biostability.

[3] = Comparative emulsion stability (p-terphenyl oil / 20% aqueous AAA); assay type: physicochemical; conditions: 10 g p-terphenyl oil + 10 g 20% wt/wt aqueous AAA, 10 s vortex
Source text: The emulsion prepared with aqueous N-butyldiethanolamine (BDEA, C/OH ratio=4) was compared to an otherwise identical emulsion prepared with 20% aqueous N-(2-hydroxybutyl)-N-(2-hydroxyethyl)-N-ethylamine (HBHEEA, C/OH ratio=4).

[4] = Condition of challenged test solutions (pH, putrification odor, appearance); conditions: formula with 4.97% amine at 4% aqueous dilution
Experimental: (§2) The biostability of three fluids containing different amines was assessed in a challenge test format. The three amines used were DCHA (dicyclohexylamine), DBAE (dibutylaminoethanol) and HBHEBA (hydroxybutyl hydroxyethyl butylamine). The test solutions were approximately 100 ml in volume and maintained at RT. The following formula was used at 4% aqueous dilution for testing:
(§3) The second challenge at 3 days was 20 ml of a rancid semi-synthetic coolant with a CFU/ml reading of 10,000,000. A volume of 20 ml was necessary to bring the volume back to the original 100 ml (each CFU/ml measurement removes 10 ml of coolant). The third challenge at 10 days was an additional 20 ml of the 10,000,000 CFU/ml rancid semi-synthetic coolant.

[5] = test system: microorganisms in challenged metalworking fluids; assay: Challenge with amines as sole biostabilizing agent (HMB-IV catalase/oxygen pressure CFU); assay type: cell-based; conditions: formula with 4.97% amine at 4% aqueous dilution; for CFU one hour after first challenge: CFU/ml
Experimental: as §2
as §1, with “The addition of a known amount of a formulated HMB-IV oxidizing agent (hydrogen peroxide, buffer and chelating chemicals) to a standard volume of the sample fluid in a sealed test tube allows for an amount of oxygen proportional to the amount of active bacteria to be produced via the chemical reaction between active catalase enzyme and the hydrogen peroxide.” left out
as §3

[6] = Dissolution of HBHEBA in water; assay type: physicochemical; conditions: RT
Experimental: Drop weight measurements (i.e., the weight of a drop of one fluid as it is carefully released into another immiscible fluid) were used to evaluate the air/liquid and liquid/liquid interfacial tensions of 5% BDEA(aq) (butyldiethanolamine with C/OH ratio of 4), 5% HBHEEA(aq) (hydroxybutyl hydroxyethyl ethylamine with C/OH ratio of 4) and 2% HBHEBA(aq) (hydroxybutyl hydroxyethyl butylamine with C/OH ratio of 5) solutions at RT (22° C.). Note that a solution of 2% wt/wt of HBHEBA in water takes several minutes to form. About 1% wt/wt of HBHEBA dissolves in water fairly rapidly with stirring, while up to approximately 3% wt/wt can eventually be dissolved if stirring is continued for a longer period of time. The following relationship (oftentimes referred to as Tate's law) is used to relate drop weight to the interfacial tension between the drop fluid and the fluid being “dropped” into: […]

[7] = AAA @ 3% in concentrate (1500 ppm diluted)
[8] = AAA @ 5% in concentrate (2500 ppm diluted)
[9] = 5% (aq) solution dropped into Air
[10] = 5% (aq) solution dropped into Decane

SMILES | CFU per ml after 1 day [1, 7] [CFU per ml × 10^6] | CFU per ml after 4 days [1, 7] [CFU per ml × 10^6] | CFU per ml after 1 day [1, 8] [CFU per ml × 10^6] | CFU per ml after 4 days [1, 8] [CFU per ml × 10^6] | γ Drop to Fluid (air/liquid interfacial tension) [2, 9] [dynes/cm] | γ Drop to Fluid (liquid/liquid interfacial tension) [2, 10] [dynes/cm] | pH of test solution @ 25 days [4] | pH of test solution @ 90 days [4] | pH of test solution after first challenge [4] | CFU @ 3 days (2nd challenge) [5] | CFU @ 7 days (4 days after 2nd challenge) [5] | CFU @ 10 days (3rd challenge) [5] | CFU @ 14 days (4 days after 3rd challenge) [5] | CFU @ 25 days (7 days after fresh dilution) [5] | CFU @ 90 days (60 day idle period simulation) [5] | CFU one hour after first challenge [5] | other results
CCCCN(CCO)CCO [BDEA, N-butyldiethanolamine] | 11 | 9.0 | 3.5 | 2.1 | 41 | 13 | – | – | – | – | – | – | – | – | – | – | Time to complete phase separation of emulsion [3]: ≤ 30 min; Time to significant oil coalescence of emulsion [3]: ≤ 15 min
CCCCN(CCO)CCCC [DBAE, N,N-dibutylaminoethanol] | – | – | – | – | – | – | 8.2 | 7.7 | 9.4 | 310,000 CFU | 2,100,000 CFU | 4,000,000 CFU | 2,500,000 CFU | 2,900,000 CFU | 8,100,000 CFU | 740,000 CFU | –
C1CCC(NC2CCCCC2)CC1 [DCHA, dicyclohexylamine] | – | – | – | – | – | – | 8.2 | 7.7 | 9.1 | 410,000 CFU | 3,000,000 CFU | 3,900,000 CFU | 3,900,000 CFU | 4,000,000 CFU | 33,000,000 CFU | 630,000 CFU | –
CCCCN(CCO)CC(O)CC (stereo not shown) [HBHEBA, N-(2-hydroxybutyl)-N-(2-hydroxyethyl)-N-butylamine] | 7.3 | 5.0 | 3.0 | 1.2 | – | – | 8.2 | 7.6 | 9.1 | 140,000 CFU | 3,300,000 CFU | 4,500,000 CFU | 2,900,000 CFU | 1,700,000 CFU | 7,700,000 CFU | 610,000 CFU | Amount that can eventually be dissolved in water ([6]; stirring continued for a longer period of time): approximately 3 % wt/wt; Amount dissolving in water fairly rapidly ([6]; with stirring): About 1 % wt/wt; γ Drop to Fluid (air/liquid interfacial tension) ([2]; 2% (aq) solution dropped into Air): 34 dynes/cm; γ Drop to Fluid (liquid/liquid interfacial tension) ([2]; 2% (aq) solution dropped into Decane): 8 dynes/cm
CCC(O)CN(CC)CCO (stereo not shown) [HBHEEA, N-(2-hydroxybutyl)-N-(2-hydroxyethyl)-ethylamine] | – | – | – | – | 37 | 17 | – | – | – | – | – | – | – | – | – | – | Emulsion stability (visual) [3]: remained completely opaque with no visible signs of coalescence for several hours
